{
  "source": "paper PMC12406203",
  "about": "(Journal of Medicinal Chemistry, 2025)",
  "assay_in_all_cases": "KINOMEscan",
  "format_in_all_cases": "binding",
  "key": {"AURKA": {"molecular_target": "T1, AURKA (Homo sapiens, UniProt O14965)", "T1 construct": "purchased Eurofins DiscoverX, LLC; host or cells: E. coli BL21-derived (T7 phage) or HEK-293", "T1 sequence (O14965 1-403)": "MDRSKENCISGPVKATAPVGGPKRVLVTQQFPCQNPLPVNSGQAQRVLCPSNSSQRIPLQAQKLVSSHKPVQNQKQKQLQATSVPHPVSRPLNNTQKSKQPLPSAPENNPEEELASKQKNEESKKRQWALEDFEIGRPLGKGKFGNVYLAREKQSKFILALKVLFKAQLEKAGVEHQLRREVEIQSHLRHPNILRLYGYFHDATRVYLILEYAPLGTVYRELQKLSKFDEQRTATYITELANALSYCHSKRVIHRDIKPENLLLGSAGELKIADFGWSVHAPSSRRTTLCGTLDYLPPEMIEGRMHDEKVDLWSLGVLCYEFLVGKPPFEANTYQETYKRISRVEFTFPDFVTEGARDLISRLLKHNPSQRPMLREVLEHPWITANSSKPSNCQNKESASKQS"}, "GSK3B": {"molecular_target": "T2, GSK3B (Homo sapiens, UniProt P49841)", "T2 construct": "purchased Eurofins DiscoverX, LLC; host or cells: E. coli (T7 phage) or HEK-293"}, "ERBB4": {"molecular_target": "T3, ERBB4 (Homo sapiens, UniProt Q15303)", "T3 construct": "purchased Eurofins DiscoverX, LLC; host or cells: E. coli (T7 phage) or HEK-293", "T3 sequence (Q15303 26-1308)": "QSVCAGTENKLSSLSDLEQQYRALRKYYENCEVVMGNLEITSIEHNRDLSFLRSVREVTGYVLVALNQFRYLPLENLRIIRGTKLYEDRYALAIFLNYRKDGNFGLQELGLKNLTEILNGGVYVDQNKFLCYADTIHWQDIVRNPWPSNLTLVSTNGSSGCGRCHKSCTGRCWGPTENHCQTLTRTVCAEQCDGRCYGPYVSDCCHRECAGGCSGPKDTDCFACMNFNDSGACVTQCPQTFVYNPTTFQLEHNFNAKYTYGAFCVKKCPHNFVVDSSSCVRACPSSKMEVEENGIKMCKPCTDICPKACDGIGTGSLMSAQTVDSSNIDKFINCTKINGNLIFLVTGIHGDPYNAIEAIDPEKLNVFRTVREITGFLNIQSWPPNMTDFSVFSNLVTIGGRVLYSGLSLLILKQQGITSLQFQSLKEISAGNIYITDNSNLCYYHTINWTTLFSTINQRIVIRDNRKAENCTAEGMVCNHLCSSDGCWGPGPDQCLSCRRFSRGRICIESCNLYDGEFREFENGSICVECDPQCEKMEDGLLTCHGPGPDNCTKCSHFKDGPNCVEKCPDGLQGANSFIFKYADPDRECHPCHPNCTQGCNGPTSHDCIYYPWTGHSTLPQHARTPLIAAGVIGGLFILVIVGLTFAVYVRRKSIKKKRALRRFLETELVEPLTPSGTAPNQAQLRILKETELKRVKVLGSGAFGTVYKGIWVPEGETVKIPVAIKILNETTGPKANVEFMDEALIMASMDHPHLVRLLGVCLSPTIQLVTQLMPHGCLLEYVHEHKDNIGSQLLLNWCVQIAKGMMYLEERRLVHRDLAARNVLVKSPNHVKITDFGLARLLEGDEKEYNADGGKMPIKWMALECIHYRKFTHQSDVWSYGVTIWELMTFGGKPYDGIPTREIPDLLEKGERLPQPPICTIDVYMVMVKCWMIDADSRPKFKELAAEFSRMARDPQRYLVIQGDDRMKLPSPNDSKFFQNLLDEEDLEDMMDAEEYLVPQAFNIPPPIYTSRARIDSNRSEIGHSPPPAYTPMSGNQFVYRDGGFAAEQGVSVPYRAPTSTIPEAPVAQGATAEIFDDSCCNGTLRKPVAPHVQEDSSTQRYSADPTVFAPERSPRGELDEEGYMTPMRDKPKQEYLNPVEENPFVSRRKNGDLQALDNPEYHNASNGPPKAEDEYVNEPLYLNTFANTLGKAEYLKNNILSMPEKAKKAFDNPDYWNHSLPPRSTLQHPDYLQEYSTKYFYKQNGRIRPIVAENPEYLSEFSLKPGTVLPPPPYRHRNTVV"}, "EGFR(L858R)": {"molecular_target": "T4, EGFR(L858R) (Homo sapiens, UniProt P00533, L858R)", "T4 construct": "purchased Eurofins DiscoverX, LLC; host or cells: E. coli (T7 phage) or HEK-293"}, "ZAP70": {"molecular_target": "T5, ZAP70 (Homo sapiens, UniProt P43403)", "T5 construct": "purchased Eurofins DiscoverX, LLC; host or cells: E. coli BL21-derived host (T7 phage) or HEK-293", "T5 sequence (P43403 1-619)": "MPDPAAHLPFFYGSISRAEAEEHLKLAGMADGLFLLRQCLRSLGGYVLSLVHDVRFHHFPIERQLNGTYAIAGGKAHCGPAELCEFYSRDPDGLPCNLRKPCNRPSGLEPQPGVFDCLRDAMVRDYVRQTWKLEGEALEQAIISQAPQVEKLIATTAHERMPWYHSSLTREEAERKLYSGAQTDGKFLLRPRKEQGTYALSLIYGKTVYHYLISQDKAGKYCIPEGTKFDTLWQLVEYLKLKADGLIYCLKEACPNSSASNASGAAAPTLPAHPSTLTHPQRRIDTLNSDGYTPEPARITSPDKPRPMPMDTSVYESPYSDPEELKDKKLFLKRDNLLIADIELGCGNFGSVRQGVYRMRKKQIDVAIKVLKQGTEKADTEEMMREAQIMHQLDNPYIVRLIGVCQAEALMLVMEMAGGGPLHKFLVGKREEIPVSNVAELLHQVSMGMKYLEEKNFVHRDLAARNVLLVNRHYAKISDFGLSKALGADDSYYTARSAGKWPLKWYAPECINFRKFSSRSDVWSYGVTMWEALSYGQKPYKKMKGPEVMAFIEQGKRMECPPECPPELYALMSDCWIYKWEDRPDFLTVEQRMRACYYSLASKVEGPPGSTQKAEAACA"}, "SNARK": {"molecular_target": "T6, SNARK (Homo sapiens, UniProt Q9H093)", "T6 construct": "purchased Eurofins DiscoverX, LLC; host or cells: E. coli BL21-derived host (T7 phage) or HEK-293", "T6 sequence (Q9H093 1-628)": "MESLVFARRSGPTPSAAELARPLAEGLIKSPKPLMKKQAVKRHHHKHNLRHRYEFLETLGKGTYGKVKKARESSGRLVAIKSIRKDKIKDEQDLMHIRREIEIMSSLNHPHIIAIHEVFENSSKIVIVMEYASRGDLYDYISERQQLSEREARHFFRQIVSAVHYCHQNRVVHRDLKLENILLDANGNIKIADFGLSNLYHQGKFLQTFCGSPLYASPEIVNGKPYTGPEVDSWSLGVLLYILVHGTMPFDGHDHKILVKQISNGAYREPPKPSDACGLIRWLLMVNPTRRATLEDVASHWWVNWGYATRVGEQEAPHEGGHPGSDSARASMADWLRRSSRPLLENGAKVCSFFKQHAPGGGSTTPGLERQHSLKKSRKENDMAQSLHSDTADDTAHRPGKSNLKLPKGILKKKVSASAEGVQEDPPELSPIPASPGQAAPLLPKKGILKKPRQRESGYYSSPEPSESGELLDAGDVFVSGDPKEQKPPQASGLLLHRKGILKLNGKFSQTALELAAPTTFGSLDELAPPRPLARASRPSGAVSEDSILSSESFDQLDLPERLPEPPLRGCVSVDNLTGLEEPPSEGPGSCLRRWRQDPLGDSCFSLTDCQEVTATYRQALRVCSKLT"}, "BRAF(V600E)": {"molecular_target": "T7, BRAF(V600E) (Homo sapiens, UniProt P15056, V600E)", "T7 construct": "purchased Eurofins DiscoverX, LLC; host or cells: E. coli BL21-derived (T7 phage) or HEK-293", "T7 sequence (P15056 whole entry V600E)": "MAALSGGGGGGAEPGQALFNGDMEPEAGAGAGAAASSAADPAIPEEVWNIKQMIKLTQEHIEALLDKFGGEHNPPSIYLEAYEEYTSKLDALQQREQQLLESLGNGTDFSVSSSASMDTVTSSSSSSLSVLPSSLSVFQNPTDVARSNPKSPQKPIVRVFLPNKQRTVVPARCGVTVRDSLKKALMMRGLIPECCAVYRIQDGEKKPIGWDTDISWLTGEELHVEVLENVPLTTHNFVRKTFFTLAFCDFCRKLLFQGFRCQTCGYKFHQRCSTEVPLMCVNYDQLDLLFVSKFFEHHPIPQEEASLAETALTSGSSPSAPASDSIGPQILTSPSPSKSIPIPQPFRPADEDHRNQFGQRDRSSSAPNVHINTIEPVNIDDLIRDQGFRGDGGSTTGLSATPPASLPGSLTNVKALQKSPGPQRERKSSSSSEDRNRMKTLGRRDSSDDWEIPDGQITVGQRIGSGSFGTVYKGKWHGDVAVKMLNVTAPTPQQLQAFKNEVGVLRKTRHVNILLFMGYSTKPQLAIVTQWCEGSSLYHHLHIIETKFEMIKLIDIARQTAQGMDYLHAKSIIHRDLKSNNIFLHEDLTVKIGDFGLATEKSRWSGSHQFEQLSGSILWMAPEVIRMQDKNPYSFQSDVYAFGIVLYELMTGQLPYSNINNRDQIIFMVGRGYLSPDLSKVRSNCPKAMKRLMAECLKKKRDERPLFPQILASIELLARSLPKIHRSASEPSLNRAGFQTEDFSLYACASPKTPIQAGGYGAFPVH"}, "PKACα": {"molecular_target": "T8, PKACα (Homo sapiens, UniProt P17612)", "T8 construct": "purchased Eurofins DiscoverX, LLC; host or cells: E. coli BL21-derived host (T7 phage) or HEK-293"}, "JNK1": {"molecular_target": "T9, JNK1 (Homo sapiens, UniProt P45983)", "T9 construct": "purchased Eurofins DiscoverX, LLC; host or cells: E. coli (BL21-derived, T7 phage) or HEK-293", "T9 sequence (P45983 whole entry)": "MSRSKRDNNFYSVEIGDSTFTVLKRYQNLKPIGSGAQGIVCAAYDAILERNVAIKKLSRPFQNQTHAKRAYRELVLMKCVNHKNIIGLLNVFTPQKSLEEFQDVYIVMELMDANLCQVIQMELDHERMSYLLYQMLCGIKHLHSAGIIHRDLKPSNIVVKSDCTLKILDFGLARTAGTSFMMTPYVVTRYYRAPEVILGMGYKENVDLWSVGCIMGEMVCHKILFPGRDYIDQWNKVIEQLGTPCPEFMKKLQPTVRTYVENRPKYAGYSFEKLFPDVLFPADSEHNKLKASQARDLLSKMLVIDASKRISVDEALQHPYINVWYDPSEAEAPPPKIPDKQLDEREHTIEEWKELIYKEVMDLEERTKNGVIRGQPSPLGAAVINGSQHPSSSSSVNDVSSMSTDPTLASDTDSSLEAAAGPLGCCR"}, "PAK2": {"molecular_target": "T10, PAK2 (Homo sapiens, UniProt Q13177)", "T10 construct": "purchased Eurofins DiscoverX, LLC; host or cells: E. coli (BL21-derived, T7 phage) or HEK-293", "T10 sequence (Q13177 whole entry)": "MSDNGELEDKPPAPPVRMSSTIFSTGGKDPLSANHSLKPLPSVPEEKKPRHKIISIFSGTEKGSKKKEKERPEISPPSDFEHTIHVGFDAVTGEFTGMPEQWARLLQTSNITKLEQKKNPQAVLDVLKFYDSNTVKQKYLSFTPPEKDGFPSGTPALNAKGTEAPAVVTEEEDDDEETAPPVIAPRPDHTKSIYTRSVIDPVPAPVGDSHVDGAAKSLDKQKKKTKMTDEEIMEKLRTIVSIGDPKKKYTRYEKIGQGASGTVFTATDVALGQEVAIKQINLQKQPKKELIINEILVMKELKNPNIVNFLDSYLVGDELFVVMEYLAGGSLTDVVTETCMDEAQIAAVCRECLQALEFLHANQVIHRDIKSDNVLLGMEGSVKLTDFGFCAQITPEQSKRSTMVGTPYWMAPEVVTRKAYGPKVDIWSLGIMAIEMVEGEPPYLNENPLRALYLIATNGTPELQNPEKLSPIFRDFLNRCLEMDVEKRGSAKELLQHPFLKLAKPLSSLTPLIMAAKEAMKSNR"}},
  "data": [
    {"smiles": "CC(C)Cn1ncc2cc(Cc3ccc(F)cc3F)c(C(=O)NCCN(C)C)cc21", "note": "[Compound 94, 5-(2,4-Difluorobenzyl)-N-(2-(dimethylamino)ethyl)-1-isobutyl-1H-indazole-6-carboxamide]", "values": [
      {"measurement": "RA @ 1000nM", "setting": "AURKA", "value": 96, "unit": "%"},
      {"measurement": "RA @ 10000nM", "setting": "AURKA", "value": 93, "unit": "%"},
      {"measurement": "RA @ 1000nM", "setting": "GSK3B", "value": 91, "unit": "%"},
      {"measurement": "RA @ 10000nM", "setting": "GSK3B", "value": 97, "unit": "%"},
      {"measurement": "RA @ 1000nM", "setting": "ERBB4", "value": 85, "unit": "%"},
      {"measurement": "RA @ 10000nM", "setting": "ERBB4", "value": 83, "unit": "%"},
      {"measurement": "RA @ 1000nM", "setting": "EGFR(L858R)", "value": 100, "unit": "%"},
      {"measurement": "RA @ 10000nM", "setting": "EGFR(L858R)", "value": 66, "unit": "%"},
      {"measurement": "RA @ 1000nM", "setting": "ZAP70", "value": 100, "unit": "%"},
      {"measurement": "RA @ 10000nM", "setting": "ZAP70", "value": 79, "unit": "%"},
      {"measurement": "RA @ 1000nM", "setting": "SNARK", "value": 100, "unit": "%"},
      {"measurement": "RA @ 10000nM", "setting": "SNARK", "value": 93, "unit": "%"},
      {"measurement": "RA @ 1000nM", "setting": "BRAF(V600E)", "value": 100, "unit": "%"},
      {"measurement": "RA @ 10000nM", "setting": "BRAF(V600E)", "value": 100, "unit": "%"},
      {"measurement": "RA @ 1000nM", "setting": "PKACα", "value": 100, "unit": "%"},
      {"measurement": "RA @ 10000nM", "setting": "PKACα", "value": 96, "unit": "%"},
      {"measurement": "RA @ 1000nM", "setting": "JNK1", "value": 77, "unit": "%"},
      {"measurement": "RA @ 10000nM", "setting": "JNK1", "value": 41, "unit": "%"},
      {"measurement": "RA @ 1000nM", "setting": "PAK2", "value": 100, "unit": "%"},
      {"measurement": "RA @ 10000nM", "setting": "PAK2", "value": 97, "unit": "%"}
    ]},
    {"smiles": "CN(C)CCNC(=O)c1cc2c(cnn2CC2CCCCC2)cc1Cc1ccc(F)cc1F", "note": "[Compound 95, 1-(Cyclohexylmethyl)-5-(2,4-difluorobenzyl)-N-(2-(dimethylamino)ethyl)-1H-indazole-6-carboxamide]", "values": [
      {"measurement": "RA @ 1000nM", "setting": "AURKA", "value": 95, "unit": "%"},
      {"measurement": "RA @ 10000nM", "setting": "AURKA", "value": 93, "unit": "%"},
      {"measurement": "RA @ 1000nM", "setting": "GSK3B", "value": 100, "unit": "%"},
      {"measurement": "RA @ 10000nM", "setting": "GSK3B", "value": 80, "unit": "%"},
      {"measurement": "RA @ 1000nM", "setting": "ERBB4", "value": 93, "unit": "%"},
      {"measurement": "RA @ 10000nM", "setting": "ERBB4", "value": 81, "unit": "%"},
      {"measurement": "RA @ 1000nM", "setting": "EGFR(L858R)", "value": 100, "unit": "%"},
      {"measurement": "RA @ 10000nM", "setting": "EGFR(L858R)", "value": 100, "unit": "%"},
      {"measurement": "RA @ 1000nM", "setting": "ZAP70", "value": 100, "unit": "%"},
      {"measurement": "RA @ 10000nM", "setting": "ZAP70", "value": 100, "unit": "%"},
      {"measurement": "RA @ 1000nM", "setting": "SNARK", "value": 93, "unit": "%"},
      {"measurement": "RA @ 10000nM", "setting": "SNARK", "value": 92, "unit": "%"},
      {"measurement": "RA @ 1000nM", "setting": "BRAF(V600E)", "value": 98, "unit": "%"},
      {"measurement": "RA @ 10000nM", "setting": "BRAF(V600E)", "value": 100, "unit": "%"},
      {"measurement": "RA @ 1000nM", "setting": "PKACα", "value": 100, "unit": "%"},
      {"measurement": "RA @ 10000nM", "setting": "PKACα", "value": 94, "unit": "%"},
      {"measurement": "RA @ 1000nM", "setting": "JNK1", "value": 100, "unit": "%"},
      {"measurement": "RA @ 10000nM", "setting": "JNK1", "value": 27, "unit": "%"},
      {"measurement": "RA @ 1000nM", "setting": "PAK2", "value": 100, "unit": "%"},
      {"measurement": "RA @ 10000nM", "setting": "PAK2", "value": 95, "unit": "%"}
    ]}
  ]
}
